Experimental data from US20260103474A1, “NOVEL COMPOUNDS FOR THE DIAGNOSIS OF TDP-43 PROTEINOPATHIES” (AC IMMUNE SA, priority 2022, published 2026).
Like-named read-outs stand apart in the source and are kept apart here.

How the values were obtained:
[1] = target: T1, Human brain derived TDP-43 aggregates (Homo sapiens, UniProt Q13148); assay: Micro-radiobinding competition assay for binding affinity to TDP-43; settings: for Ki: 0.24 nM to 2 μM vs tritiated reference ligand at 40 nM; for Human brain derived TDP-43 aggregates Mean % competition at 250 nM: non-radiolabeled compound at 250 nM vs tritiated reference ligand at 40 nM; for Human brain derived TDP-43 aggregates Mean % competition at 250 nM / Human brain derived TDP-43 aggregates Mean % competition at 2 μM: FTD sarkosyl-insoluble brain extracts; for Human brain derived TDP-43 aggregates Mean % competition at 2 μM: non-radiolabeled compound at 2 μM vs tritiated reference ligand at 40 nM
T1 construct: Human FTD sarkosyl-insoluble brain extracts were spotted onto microarray slides
T1 sequence (Q13148 261-414 limits assumed): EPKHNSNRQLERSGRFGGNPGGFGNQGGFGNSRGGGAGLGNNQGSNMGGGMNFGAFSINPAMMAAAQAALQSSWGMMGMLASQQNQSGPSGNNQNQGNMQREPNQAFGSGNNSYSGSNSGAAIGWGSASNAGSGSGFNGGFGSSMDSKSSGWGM
Procedure: Human brain extracts were prepared as described in Laferriere et al., 2019, Nature Neurosc. A sample of brain tissue (frontal or temporal cortex) was homogenized at 1:4 (w/v) ratio in the homogenization-solubilization (HS) buffer at 4° C. using tissue homogenizer (Precellys) with CKmix homogenization tubes. The following sequence was used for homogenization: 3 cycles of 30 seconds at 5000 rpm (with 15 seconds pause between each cycle). Homogenized samples were aliquoted and stored at −80° C. in 1.5 mL low protein binding tubes.
Brain homogenates were thawed on ice and resuspended in HS buffer to obtain a final concentration of 2% sarkosyl, 1 unit/μL Benzonase and 1 mM MgCl2. The samples were then incubated at 37° C. under constant shaking at 600 rpm on a thermomixer for 45 minutes (min). The supernatants were collected in a new tube (sarkosyl-soluble fraction, S1). The pellet was resuspended in 1000 μL of myelin floatation buffer and centrifuged at 20,000 g for 60 min at 4° C. The supernatant was carefully removed to remove all the floating lipids. This step was repeated if all the lipids could not be removed in a single step. The pellet was subsequently washed with Phosphate-Buffered Saline (PBS) and centrifuged for 30 min at 20,000 g at 4° C. The final pellet was resuspended in 200 μL PBS and stored at −80° C. (sarkosyl-insoluble fraction). The samples were analyzed by immunoblotting in denaturing conditions.
Human FTD sarkosyl-insoluble brain extracts were spotted onto microarray slides. The slides were incubated with a tritiated reference ligand at 40 nM, and the example compounds (non-radiolabeled) at 2 μM and 250 nM. […] After incubation, slides were washed and scanned by a real-time autoradiography system (BeaQuant, ai4R). Quantification of the signal was performed by using the Beamage image analysis software (ai4R). Non-specific signal was determined with an excess of non-radiolabeled reference compound (2 μM) and specific binding was calculated by subtracting the non-specific signal from the total signal. Competition was calculated as percent, where 0% was defined as the specific binding in the presence of vehicle and 100% as the values obtained in the presence of excess of the non-radiolabeled reference compound. Ki values were calculated in GraphPad Prism8 by applying a nonlinear regression curve fit using a one site, specific binding model. Measurements were performed with at least two technical replicates in the two-concentration competition experiment and with one technical replicate in the experiments including a range of concentrations. For compounds tested in more than one experiment, the mean of the replicates or Ki values in independent experiments is reported.

Abeta = target: T2, Abeta (Homo sapiens, UniProt P05067); assay: Radiobinding competition assay using Abeta reference compound on AD insoluble fraction of brain homogenates; type: binding; settings: against [3H]Abeta reference compound
T2 construct: an AD donor with confirmed burden of Tau and Abeta aggregates; from tissue; host or cells: frontal cortex of a human AD donor, Triton/sucrose-insoluble fraction
T2 sequence (P05067 672-713 limits assumed): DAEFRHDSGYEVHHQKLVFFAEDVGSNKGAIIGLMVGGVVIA
Procedure: Approximately 4 g of frozen tissue block from frontal cortex brain region was used from an AD donor with confirmed burden of Tau and Abeta aggregates. The tissue was homogenized in three volumes (1:3 w/v) of high salt buffer (50 mM Tris-HCl pH 7.5, 750 mM NaCl, 5 mM EDTA) supplemented with protease inhibitors (Complete; Roche 11697498001) at 4° C. with a glass Dounce homogenizer. The homogenate was transferred into polycarbonate centrifuge bottles (16×76 mm; Beckman 355603) and centrifuged at 100,000×g (38,000 RPM) in an ultracentrifuge (Beckman, XL100K) for 60 minutes at 4° C. using a pre-cooled 70.1 rotor (Beckman, 342184). Pellets were resuspended in high salt buffer supplemented with 1% Triton X-100 and homogenized at 4° C. with a syringe. The homogenates were centrifuged again at 100,000×g (38,000 RPM, 70.1 rotor) for 60 minutes at 4° C. Pellets were resuspended in high salt buffer supplemented with 1% Triton X-100 and 1 M sucrose and homogenized at 4° C. with a syringe. The homogenates were centrifuged at 100,000×g (38,000 RPM, 70.1 rotor) for 60 minutes at 4° C. The resulting pellets containing insoluble fraction were resuspended in PBS (1:2 w/v relative to starting tissue weight), aliquoted and stored at −80° C. until use.
The reaction was performed in assay buffer (50 mM Tris pH 7.5 in 0.9% NaCl, 0.1% BSA) and incubated for two hours at room temperature (RT). Samples in duplicate were then filtered under vacuum in GF/C filter plates (PerkinElmer) to trap the aggregates with the bound radioligand and washed with 100 μL ice-cold 50 mM Tris pH 7.5. The GF/C filters were then dried and scintillation liquid (UltimateGold, PerkinElmer, 6013151) was added in each well. The filters were analyzed on a Microbeta2 scintillation counter (PerkinElmer). Values for the maximal signal were obtained in the absence of non-radiolabeled compound, while 100% displacement was obtained using 1 μM of non-radiolabeled reference compound. Ki values were calculated by nonlinear regression, using a one site—fit Ki model in Prism V7 (GraphPad).

[2] = cells printed in μM, read-out: Ki on AD brain homogenates

Row | Ki [1] [µM] | Human brain derived TDP-43 aggregates Mean % competition at 250 nM [1] [%] | Human brain derived TDP-43 aggregates Mean % competition at 2 μM [1] [%] | Ki (Abeta; [2]) [µM] | Ki (Abeta; read-out: Ki (nM) on AD brain homogenates) [µM] | SMILES
1 | 0.025 | 73 | 104 | > 1 | – | O=C1c2sc(-c3ccc(N4CCCCC4)nc3F)nc2CCN1c1ccnc(F)c1 [Compound 23, 2-(2-fluoro-6-(piperidin-1-yl)pyridin-3-yl)-5-(2-fluoropyridin-4-yl)-6,7-dihydrothiazolo[5,4-c]pyridin-4(5H)-one]
2 | 0.048 | 57 | 94 | > 1 | – | O=C1c2sc(-c3ccc(N4CCC[C@H](F)C4)nc3F)nc2CCN1c1cnsc1 [Compound 27, (S)-2-(2-fluoro-6-(3-fluoropiperidin-1-yl)pyridin-3-yl)-5-(isothiazol-4-yl)-6,7-dihydrothiazolo[5,4-c]pyridin-4(5H)-one]
3 | 0.043 | 45 | 86 | > 1 | – | Nc1cc(N2CCc3nc(-c4ccc(N5CCC[C@H](F)C5)nc4F)sc3C2=O)ccn1 [Compound 29]
4 | 0.065 | 61 | 83 | > 1 | – | O=C1c2sc(-c3ccc(N4CCC[C@@H](F)C4)nc3F)nc2CCN1c1cnsc1 [Compound 24, (R)-2-(2-fluoro-6-(3-fluoropiperidin-1-yl)pyridin-3-yl)-5-(isothiazol-4-yl)-6,7-dihydrothiazolo[5,4-c]pyridin-4(5H)-one]
5 | 0.013 | 55 | 91 | – | 0.318 | Nc1cc(N2CCc3nc(-c4ccc(N5CC[C@H](F)C5)nc4F)sc3C2=O)ccn1 [Compound 26]
6 | 0.005 | 67 | 96 | > 1 | – | O=C1c2sc(-c3ccc(N4CC[C@H](F)C4)nc3F)nc2CCN1c1ncccn1 [Compound 16]
7 | – | 73 | 102 | – | – | Cn1cc(N2CCc3nc(-c4ccc(N5CC[C@@H](F)C5)nc4F)sc3C2=O)cn1 [Compound 11]
8 | 0.011 | 62 | 86 | > 1 | – | O=C1c2sc(-c3ccc(N4CC[C@@H](F)C4)nc3F)nc2CCN1c1ncccn1 [Compound 15, 2-[2-fluoro-6-[(3R)-3-fluoropyrrolidin-1-yl]-3-pyridyl]-5-pyrimidin-2-yl-6,7-dihydrothiazolo[5,4-c]pyridine-4-one]
9 | 0.004 | 65 | 80 | > 1 | – | N#Cc1c(N)cccc1N1CCc2nc(-c3ccc(N4CC[C@H](F)C4)nc3F)sc2C1=O [Compound 32]
10 | 0.054 | 68 | 100 | – | – | O=C1c2sc(-c3ccc(N4CC[C@@H](F)C4)nc3F)nc2CCN1c1cnsc1 [Compound 22]
11 | 0.051 | 51 | 73 | > 1 | – | O=C1c2sc(-c3ccc(N4CC[C@@H](F)C4)nc3F)nc2CCN1c1ccncc1 [Example 7]
12 | – | 56 | 59 | – | – | O=C1c2sc(-c3ccc(N4CCCC4)nc3F)nc2CCN1c1ccc(F)nc1 [Compound 12]

More lines, now with the values behind:

Row | SMILES | Ki [1] [µM] | Human brain derived TDP-43 aggregates Mean % competition at 250 nM [1] [%] | Human brain derived TDP-43 aggregates Mean % competition at 2 μM [1] [%] | Ki (Abeta; [2]) [µM] | Ki (Abeta; read-out: Ki (nM) on AD brain homogenates) [µM]
13 | N#Cc1c(N)cccc1N1CCc2nc(-c3ccc(N4CCC[C@@H](F)C4)nc3F)sc2C1=O [Compound 30] | 0.007 | 66 | 93 | – | –
14 | O=C1c2sc(-c3ccc(N4CCCC4)nc3F)nc2CCN1c1cccnc1 [Compound 9, 2-(2-fluoro-6-(pyrrolidin-1-yl)pyridin-3-yl)-5-(pyridin-3-yl)-6,7-dihydrothiazolo[5,4-c]pyridin-4(5H)-one] | 0.031 | 62 | 75 | > 1 | –
15 | O=C1c2sc(-c3ccc(N4CCC[C@H](F)C4)nc3F)nc2CCN1c1ncccn1 [Compound 35] | 0.049 | 55 | 70 | > 1 | –
16 | O=C1c2sc(-c3ccc(N4CCCC4)nc3F)nc2CCN1c1ccncc1 [Compound 14] | – | 48 | 34 | – | –
17 | O=C1c2sc(-c3ccc(N4CC[C@@H](F)C4)nc3F)nc2CCN1c1cscn1 [Compound 33] | 0.036 | 60 | 86 | – | –
18 | O=C1c2sc(-c3ccc(N4CC[C@H](F)C4)nc3F)nc2CCN1c1ccnnc1 [Compound 36] | 0.007 | 66 | 75 | – | –
19 | Cn1cc(N2CCc3nc(-c4ccc(N5CCCC5)nc4F)sc3C2=O)cn1 [Compound 21] | 0.03 | 46 | 85 | – | –
20 | O=C1c2sc(-c3ccc(N4CC[C@H](F)C4)nc3F)nc2CCN1c1ccncn1 [Compound 37] | 0.025 | 80 | 70 | > 1 | –
21 | N#Cc1c(N)cccc1N1CCc2nc(-c3ccc(N4CCC[C@H](F)C4)nc3F)sc2C1=O [Compound 31] | 0.004 | 62 | 70 | > 1 | –
22 | N#Cc1c(N)cccc1N1CCc2nc(-c3ccc(N4CC[C@@H](F)C4)nc3F)sc2C1=O [Compound 34] | 0.005 | 60 | 77 | > 1 | –
23 | O=C1c2sc(-c3ccc(N4CC[C@H](F)C4)nc3F)nc2CCN1c1cnsc1 [Compound 25, (S)-2-(2-fluoro-6-(3-fluoropyrrolidin-1-yl)pyridin-3-yl)-5-(isothiazol-4-yl)-6,7-dihydrothiazolo[5,4-c]pyridin-4(5H)-one] | 0.048 | 78 | 96 | > 1 | –
